Measurements reported in ChEMBL document CHEMBL3751678, “Stabilizing G-quadruplex DNA by methylazacalix[n]pyridine through shape-complementary interaction” (Bioorg Med Chem Lett, 2016).

Experiments:
[1] = Stabilization of c-kit G-quadruplex DNA (unknown origin) assessed as change in melting temparature by circular dichroism analysis
Homo sapiens [2] = organism: Homo sapiens; assay: Stabilization of human H12 G-quadruplex DNA assessed as change in melting temparature by circular dichroism analysis
[3] = Stabilization of TBA G-quadruplex DNA (unknown origin) assessed as change in melting temparature by circular dichroism analysis
Homo sapiens [4] = organism: Homo sapiens; assay: Stabilization of human T12 G-quadruplex DNA assessed as change in melting temparature by circular dichroism analysis
[5] = Stabilization of Bcl2 G-quadruplex DNA (unknown origin) assessed as change in melting temparature by circular dichroism analysis

SMILES	ΔTm [1] [°C]	ΔTm (Homo sapiens [2]) [°C]	ΔTm [3] [°C]	ΔTm (Homo sapiens [4]) [°C]	ΔTm [5] [°C]
CN1c2cccc(n2)N(C)c2cccc(n2)N(C)c2cccc(n2)N(C)c2cccc(n2)N(C)c2cccc(n2)N(C)c2cccc(n2)N(C)c2cccc(n2)N(C)c2cccc1n2	0	0	0	0	0
CN1c2cccc(n2)N(C)c2cccc(n2)N(C)c2cccc(n2)N(C)c2cccc1n2	0	0	0	0	0
Cn1c2cccc(n2)n(C)c2cccc(n2)n(C)c2cccc(n2)n(C)c2cccc(n2)n(C)c2cccc(n2)n(C)c2cccc1n2	0	7	0	4	0

Other lines, results leading:

ΔTm [1] [°C]	ΔTm (Homo sapiens [2]) [°C]	ΔTm [3] [°C]	ΔTm (Homo sapiens [4]) [°C]	ΔTm [5] [°C]	SMILES
0	0	0	0	0	CN1c2cccc(n2)N(C)c2cccc(n2)N(C)c2cccc(n2)N(C)c2cccc(n2)N(C)c2cccc(n2)N(C)c2cccc(n2)N(C)c2cccc(n2)N(C)c2cccc(n2)N(C)c2cccc1n2
0	0	0	0	0	CN1c2cccc(n2)N(C)c2cccc(n2)N(C)c2cccc(n2)N(C)c2cccc(n2)N(C)c2cccc(n2)N(C)c2cccc(n2)N(C)c2cccc1n2
